Literature values as cited in patent US20230210762A1, “TRANSDERMAL DRUG DELIVERY DEVICES HAVING PSILOCYBIN, LYSERGIC ACID DI[…] 3,4-METHYLENEDIOXYMETHA[…] MICROPROTRUSIONS” (Emergex USA Corporation, priority 2020, published 2023).
Where two headings read alike, the source gives them in different places.

What was measured:
[1] = not given; remark: listed apart in the source
[2] = not given; remark: listed apart in the source
[3] = psilocybin administered orally to rats

Compound: CN(C)CCc1c[nH]c2cccc(OP(=O)(O)O)c12 [psilocybin, 3-[2-(demethylamino)ethyl-1H-indol-4-yl] dihydrogen phosphate]
- half-life (administered intravenously): 1.24 ± 0.327 h
- half-life (administered orally): 2.72 ± 1.07 h
- bioavailability (psilocybin ingested orally): about 50%
- solubility in water [1]: soluble
- ingested psilocybin absorbed through the stomach and intestine ([2]; oral, studies in animals): about 50%
- detected in urine, time after ingestion ([2]; urine): 7 days
- time within which most of the drug is eliminated ([2]; via urine, bile and feces): ≤ 8 h
- absorbed psilocybin excreted in the bile and feces ([2]; within 24 hours): 15-20%
- absorbed psilocybin excreted into the urine ([2]; within 24 hours): about 65%

Compound: CN(C)CCc1c[nH]c2cccc(O)c12 [psilocin]
- time until psilocin is detectable in plasma (after administration of the parent compound psilocybin): ≤ 20 min
- time to maximum plasma levels [3]: approximately 90 minutes
- total volume of psilocin absorbed from the digestive tract [3]: approximately 50%
